Measured values reported in patent publication US20080292584A1 (priority 2005, published 2008).
Several values for one entry are separate records, joined by “and”; a condition that tells them apart may be missing. Equal values may be shown once. Read-outs that look alike come from different tables or passages of the source.

Assays:
CYP2A6 = target: T1, CYP2A6 (Homo sapiens, UniProt P11509); experiment: Metabolism of metaxalone by expressed recombinant human CYP2A6 at 5 or 20 pmol (Example 4); details: for % Turnover Mean / [metaxalone] Mean / % Turnover % / [metaxalone]: 60 min; for % Turnover % / [metaxalone]: single replicates
T1 sequence (P11509 1-494): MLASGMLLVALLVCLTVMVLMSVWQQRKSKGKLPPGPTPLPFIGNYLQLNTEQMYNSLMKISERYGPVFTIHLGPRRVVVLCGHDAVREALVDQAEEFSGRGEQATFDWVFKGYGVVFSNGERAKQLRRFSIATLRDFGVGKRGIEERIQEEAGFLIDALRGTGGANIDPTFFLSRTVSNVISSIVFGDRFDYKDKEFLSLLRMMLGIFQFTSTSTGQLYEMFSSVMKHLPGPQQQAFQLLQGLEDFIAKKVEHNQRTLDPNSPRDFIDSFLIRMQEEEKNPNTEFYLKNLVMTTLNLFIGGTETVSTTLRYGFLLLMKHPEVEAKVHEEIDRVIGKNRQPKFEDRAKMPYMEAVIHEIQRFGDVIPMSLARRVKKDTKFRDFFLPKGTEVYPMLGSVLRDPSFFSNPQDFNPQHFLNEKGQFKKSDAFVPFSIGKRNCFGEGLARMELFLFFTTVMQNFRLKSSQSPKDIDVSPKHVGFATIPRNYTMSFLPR

CYP3A4 = CYP3A4 (Homo sapiens, UniProt P08684); details: for % Turnover Mean: both, human, microsomes, 1 h, pH 7.4
CYP3A4, sequence (P08684 whole entry): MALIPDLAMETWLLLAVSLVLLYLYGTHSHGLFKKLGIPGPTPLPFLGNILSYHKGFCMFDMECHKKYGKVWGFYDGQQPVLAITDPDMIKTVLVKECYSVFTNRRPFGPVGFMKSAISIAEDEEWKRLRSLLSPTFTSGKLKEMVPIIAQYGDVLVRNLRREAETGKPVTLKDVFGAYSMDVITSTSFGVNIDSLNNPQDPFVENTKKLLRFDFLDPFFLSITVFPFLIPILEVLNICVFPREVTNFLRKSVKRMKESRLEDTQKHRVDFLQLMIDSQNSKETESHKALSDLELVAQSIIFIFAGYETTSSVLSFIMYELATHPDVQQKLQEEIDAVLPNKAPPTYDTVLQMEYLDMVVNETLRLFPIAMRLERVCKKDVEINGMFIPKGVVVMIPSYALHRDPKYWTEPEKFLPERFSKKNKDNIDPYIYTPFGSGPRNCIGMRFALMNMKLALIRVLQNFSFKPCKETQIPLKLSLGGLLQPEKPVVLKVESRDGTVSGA
Experimental: Human liver microsomes pooled from 15 individuals (male and female) (Pool HMMC-PL020; CellzDirect, Inc., In Vitro Products and Services Division) were used in some experiments of this study.
% Turnover=100−{[TA(final)]/[mean of TA(0 min)]}×100,
% Inhibition of Turnover=100{1−([TA(0 min)]−[TA(final-inhibitor)])/([TA(0 min)]−[TA(final-no inhibitor)])}.
The inhibitors or vehicle control were incubated with the pooled human liver microsomes (1 mg/mL) and NADPH (1 mM) in 0.1 M phosphate buffer, pH 7.4. […] Incubations were conducted in triplicate and terminated by addition of organic solvent. Samples were extracted and analyzed by LC-MS/MS as described above.

CYP2C19 = CYP2C19 (Homo sapiens, UniProt P33261); experiment: Metabolism of metaxalone by expressed recombinant human CYP2C19 at 5 or 20 pmol (Example 4); details: for percent turnover / % Turnover Mean / [metaxalone] Mean / % Turnover % / [metaxalone]: 60 min; for % Turnover % / [metaxalone]: single replicates, listed as Metaxalone
CYP2C19, sequence (P33261 whole entry): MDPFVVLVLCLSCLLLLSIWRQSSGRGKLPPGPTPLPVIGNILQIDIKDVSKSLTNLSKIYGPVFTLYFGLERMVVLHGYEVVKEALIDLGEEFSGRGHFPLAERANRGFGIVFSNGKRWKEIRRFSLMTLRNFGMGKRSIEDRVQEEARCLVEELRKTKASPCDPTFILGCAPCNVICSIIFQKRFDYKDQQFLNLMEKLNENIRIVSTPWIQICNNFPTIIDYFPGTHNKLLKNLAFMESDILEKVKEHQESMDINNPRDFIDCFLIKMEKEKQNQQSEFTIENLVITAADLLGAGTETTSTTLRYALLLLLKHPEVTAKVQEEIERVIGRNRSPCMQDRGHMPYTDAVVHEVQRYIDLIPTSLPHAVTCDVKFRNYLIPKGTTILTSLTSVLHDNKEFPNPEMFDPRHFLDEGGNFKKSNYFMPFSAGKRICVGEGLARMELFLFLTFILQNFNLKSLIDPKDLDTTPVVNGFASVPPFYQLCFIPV

human CYP1A2 = target: T2, human CYP1A2 (Homo sapiens, UniProt P05177); experiment: Metabolism of metaxalone by expressed recombinant human CYP1A2 (disappearance of metaxalone, HPLC; Example 1); details: 30 min;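 note: recombinant CYP1A2 microsomes (10 pmol P450) in Tris buffer containing 1% methanol, reactions driven by an NADPH regenerating system, 0.5 mL incubations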
T2 sequence (P05177 2-516 limits assumed): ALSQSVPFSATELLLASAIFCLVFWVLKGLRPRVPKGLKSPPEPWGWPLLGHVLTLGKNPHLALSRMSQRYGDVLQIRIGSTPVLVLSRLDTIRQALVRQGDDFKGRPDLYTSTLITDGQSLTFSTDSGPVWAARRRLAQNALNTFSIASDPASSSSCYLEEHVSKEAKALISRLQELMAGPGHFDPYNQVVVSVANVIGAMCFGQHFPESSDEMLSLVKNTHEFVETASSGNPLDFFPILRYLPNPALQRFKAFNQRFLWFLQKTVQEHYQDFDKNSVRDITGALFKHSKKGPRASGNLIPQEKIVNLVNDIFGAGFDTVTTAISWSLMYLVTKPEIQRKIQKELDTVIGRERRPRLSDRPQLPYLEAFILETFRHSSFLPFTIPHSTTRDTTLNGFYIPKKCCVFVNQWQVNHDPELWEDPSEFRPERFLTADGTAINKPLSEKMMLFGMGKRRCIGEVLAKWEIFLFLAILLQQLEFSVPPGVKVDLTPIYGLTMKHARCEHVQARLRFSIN
Experimental: Commercially available microsomes from baculovirus-infected insect cells containing singly-expressed recombinant wild-type (*1 allele) human CYP enzymes and cDNA-expressed human cytochrome p450 oxidoreductase [BD SUPERSOMES Enzymes; BD Biosciences Discovery Labware (Woburn, Mass.)] were used.
After a 5-minute pre-incubation, an NADPH regenerating system (NRS) was added to the incubation mixtures to initiate reactions, with a final incubation volume of 0.5 mL. Incubations were continued for 30 minutes, and then terminated, except for those for CYP2C19, which were incubated for 36 minutes prior to termination.
Matrix controls were performed to determine the background signal from the matrix components (microsomes (10 pmol p450), 01N Tris buffer, NRS, and 1% methanol). […] After a 5-minute pre-incubation, 2% sodium bicarbonate solution was added to the incubation mixtures. Incubation was for 30 minutes at a final volume of 0.5 mL. Matrix and metabolic negative controls were terminated by adding an equal volume of methanol. […] Analysis of samples was subsequent to storage at −70° C.

CYP2E1 = CYP2E1 (Homo sapiens, UniProt P05181); experiment: Metabolism of metaxalone by expressed recombinant human CYP2E1 at 5 or 20 pmol (Example 4); details: for percent turnover / % Turnover Mean / [metaxalone] Mean / % Turnover % / [metaxalone]: 60 min; for % Turnover % / [metaxalone]: single replicates, listed as Metaxalone
CYP2E1, sequence (P05181 whole entry): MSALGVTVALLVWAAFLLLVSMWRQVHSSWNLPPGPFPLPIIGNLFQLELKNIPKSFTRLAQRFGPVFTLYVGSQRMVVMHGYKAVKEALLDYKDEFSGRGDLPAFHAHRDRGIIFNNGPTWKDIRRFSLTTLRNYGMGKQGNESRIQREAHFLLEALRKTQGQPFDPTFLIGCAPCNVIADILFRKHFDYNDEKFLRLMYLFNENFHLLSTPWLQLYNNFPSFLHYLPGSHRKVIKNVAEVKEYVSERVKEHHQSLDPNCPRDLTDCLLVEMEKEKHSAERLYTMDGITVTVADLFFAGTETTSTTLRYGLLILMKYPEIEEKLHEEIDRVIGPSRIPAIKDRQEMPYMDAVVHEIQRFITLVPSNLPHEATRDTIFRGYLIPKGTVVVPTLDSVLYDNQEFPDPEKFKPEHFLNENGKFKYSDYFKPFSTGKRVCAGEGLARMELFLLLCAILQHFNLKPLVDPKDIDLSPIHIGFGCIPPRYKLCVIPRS

[1] = 400 mg oral dosage form; humans; cited from earlier work
[2] = 0.75 μM metaxalone, 5 pmol cyp, listed as Metaxalone
[3] = 0.75 μM metaxalone, 20 pmol cyp
[4] = 0.75 μM metaxalone, 20 pmol cyp, listed as Metaxalone
[5] = 7.5 μM metaxalone, 5 pmol cyp, listed as Metaxalone
[6] = 7.5 μM metaxalone, 20 pmol cyp, listed as Metaxalone
[7] = 0.75 μM metaxalone, 1 mg/mL HLM, 60 min, with ketoconazole
[8] = 0.75 μM metaxalone, 1 mg/mL HLM, 60 min, with ketoconazole, single replicates
[9] = 7.5 μM metaxalone, 1 mg/mL HLM, 60 min, with ketoconazole
[10] = 7.5 μM metaxalone, 1 mg/mL HLM, 60 min, with ketoconazole, single replicates
[11] = 0.75 μM metaxalone, 5 pmol CYP450
[12] = 0.75 μM metaxalone, 20 pmol CYP450
[13] = 7.5 μM metaxalone, 5 pmol CYP450
[14] = 7.5 μM metaxalone, 20 pmol CYP450

Cc1cc(C)cc(OCC2CNC(=O)O2)c1 (stereo not shown) [metaxalone, 5-[(3,5-dimethylphenoxy)methyl]-2-oxazolidinone]
% Turnover Mean (CYP2A6; 0.75 μM metaxalone, 5 pmol cyp): 0.14%
[metaxalone] Mean (CYP2A6; 0.75 μM metaxalone, 5 pmol cyp): 0.790 µM
% Turnover % (CYP2A6; 0.75 μM metaxalone, 5 pmol cyp): −4.1%
% Turnover % (CYP2A6; [2]): 1.8% and 2.8%
[metaxalone] (CYP2A6; [2]): 0.777 µM and 0.824 µM and 0.769 µM
% Turnover Mean (CYP2A6; [3]): 0.91%
[metaxalone] Mean (CYP2A6; [3]): 0.784 µM
% Turnover % (CYP2A6; [3]): −5.7%
% Turnover % (CYP2A6; [4]): 3.7% and 4.8%
[metaxalone] (CYP2A6; [4]): 0.837 µM and 0.762 µM and 0.753 µM
% Turnover Mean (CYP2A6; 7.5 μM metaxalone, 5 pmol cyp): 3.7%
[metaxalone] Mean (CYP2A6; 7.5 μM metaxalone, 5 pmol cyp): 8.14 µM
% Turnover % (CYP2A6; 7.5 μM metaxalone, 5 pmol cyp): −2.3%
% Turnover % (CYP2A6; [5]): 9.0% and 4.3%
[metaxalone] (CYP2A6; [5]): 7.69 µM and 8.08 µM and 8.64 µM
% Turnover Mean (CYP2A6; 7.5 μM metaxalone, 20 pmol cyp): −1.8%
[metaxalone] Mean (CYP2A6; 7.5 μM metaxalone, 20 pmol cyp): 8.59 µM
% Turnover % (CYP2A6; [6]): −1.6% and 6.1% and −9.8%
[metaxalone] (CYP2A6; [6]): 8.58 µM and 7.93 µM and 9.27 µM
Substrate (CYP2A6; CYP isozyme 2A6, summary of studies): 0
% inhibition of turnover Mean (CYP3A4; [7]): 126%
Mean Conc. (CYP3A4; [7]): 0.831 µM
% inhibition of turnover (CYP3A4; [8]): 132% and 116% and 130%
Conc. (CYP3A4; [8]): 0.844 µM and 0.807 µM and 0.842 µM
% inhibition of turnover Mean (CYP3A4; [9]): 130%
Mean Conc. (CYP3A4; [9]): 9.13 µM
% Turnover (CYP3A4; [10]): 0.28%
% inhibition of turnover (CYP3A4; [10]): 98.8% and 161% and 129%
Conc. (CYP3A4; [10]): 8.49 µM and 9.78 µM and 9.12 µM
% Turnover Mean (CYP3A4; 0.75 μM): −7.71%
% Turnover Mean (CYP3A4; 7.5 μM): −7.26%
percent turnover (CYP2C19; [11]): 6.9%
% Turnover Mean (CYP2C19; 0.75 μM metaxalone, 5 pmol cyp): 6.9%
[metaxalone] Mean (CYP2C19; 0.75 μM metaxalone, 5 pmol cyp): 0.662 µM
% Turnover % (CYP2C19; 0.75 μM metaxalone, 5 pmol cyp): 2.2% and 7.6% and 11.0%
[metaxalone] (CYP2C19; 0.75 μM metaxalone, 5 pmol cyp): 0.696 µM and 0.658 µM and 0.634 µM
percent turnover (CYP2C19; [12]): 12.5%
% Turnover Mean (CYP2C19; [3]): 12.5%
[metaxalone] Mean (CYP2C19; [3]): 0.623 µM
% Turnover % (CYP2C19; [3]): 7.4% and 13.3% and 16.9%
[metaxalone] (CYP2C19; [3]): 0.659 µM and 0.618 µM and 0.591 µM
percent turnover (CYP2C19; [13]): 6.3%
% Turnover Mean (CYP2C19; 7.5 μM metaxalone, 5 pmol cyp): 6.3%
[metaxalone] Mean (CYP2C19; 7.5 μM metaxalone, 5 pmol cyp): 7.23 µM
% Turnover % (CYP2C19; 7.5 μM metaxalone, 5 pmol cyp): 0.25% and 7.1% and 11.6%
[metaxalone] (CYP2C19; 7.5 μM metaxalone, 5 pmol cyp): 7.69 µM and 7.17 µM and 6.82 µM
percent turnover (CYP2C19; [14]): 18.7%
% Turnover Mean (CYP2C19; 7.5 μM metaxalone, 20 pmol cyp): 18.7%
[metaxalone] Mean (CYP2C19; 7.5 μM metaxalone, 20 pmol cyp): 6.27 µM
% Turnover % (CYP2C19; 7.5 μM metaxalone, 20 pmol cyp): 20.2% and 18.0% and 17.8%
[metaxalone] (CYP2C19; 7.5 μM metaxalone, 20 pmol cyp): 6.16 µM and 6.32 µM and 6.34 µM
Substrate (CYP2C19; CYP isozyme 2C19, summary of studies): +
Metaxalone Present Adjusted Individual (human CYP1A2; metaxalone 0.5 μM): 0.302 µM and 0.440 µM and 0.315 µM
Metaxalone Present Adjusted Mean ± SD (human CYP1A2; metaxalone 0.5 μM): 0.352 ± 0.0761 µM
Metaxalone Present Raw (human CYP1A2; metaxalone 0.5 μM): 0.1509 µM and 0.2198 µM and 0.1573 µM
Percent of Metabolic Negative Control Individual (human CYP1A2; metaxalone 0.5 μM): 77.1% and 112% and 80.4%
Percent of Metabolic Negative Control Mean ± SD (human CYP1A2; metaxalone 0.5 μM): 89.9 ± 19.4%
Metaxalone Present Adjusted Individual (human CYP1A2; metaxalone 2.5 μM): 1.05 µM and 1.06 µM and 1.08 µM
Metaxalone Present Adjusted Mean ± SD (human CYP1A2; metaxalone 2.5 μM): 1.07 ± 0.0167 µM
Metaxalone Present Raw (human CYP1A2; metaxalone 2.5 μM): 0.527 µM and 0.5291 µM and 0.5423 µM
Percent of Metabolic Negative Control Individual (human CYP1A2; metaxalone 2.5 μM): 79.5% and 79.8% and 81.8%
Percent of Metabolic Negative Control Mean ± SD (human CYP1A2; metaxalone 2.5 μM): 80.4 ± 1.26%
Metaxalone Present Adjusted Individual (human CYP1A2; metaxalone 25 μM): 16.4 μM (2×) and 17.0 μM
Metaxalone Present Adjusted Mean ± SD (human CYP1A2; metaxalone 25 μM): 16.6 ± 0.337 µM
Metaxalone Present Raw (human CYP1A2; metaxalone 25 μM): 8.205 µM and 8.192 µM and 8.49 µM
Percent of Metabolic Negative Control Individual (human CYP1A2; metaxalone 25 μM): 82.8% and 82.6% and 85.6%
Percent of Metabolic Negative Control Mean ± SD (human CYP1A2; metaxalone 25 μM): 83.7 ± 1.70%
percent turnover (CYP2E1; [11]): 11.3%
% Turnover Mean (CYP2E1; 0.75 μM metaxalone, 5 pmol cyp): 11.3%
[metaxalone] Mean (CYP2E1; 0.75 μM metaxalone, 5 pmol cyp): 0.631 µM
% Turnover % (CYP2E1; 0.75 μM metaxalone, 5 pmol cyp): 2.7% and 15.1% and 16.3%
[metaxalone] (CYP2E1; 0.75 μM metaxalone, 5 pmol cyp): 0.693 µM and 0.604 µM and 0.596 µM
percent turnover (CYP2E1; [12]): 16.2%
% Turnover Mean (CYP2E1; [3]): 16.2%
[metaxalone] Mean (CYP2E1; [3]): 0.597 µM
% Turnover % (CYP2E1; [3]): 14.6% and 12.6% and 21.3%
[metaxalone] (CYP2E1; [3]): 0.608 µM and 0.622 µM and 0.560 µM
percent turnover (CYP2E1; [13]): 18.4%
% Turnover Mean (CYP2E1; 7.5 μM metaxalone, 5 pmol cyp): 18.4%
[metaxalone] Mean (CYP2E1; 7.5 μM metaxalone, 5 pmol cyp): 6.29 µM
% Turnover % (CYP2E1; 7.5 μM metaxalone, 5 pmol cyp): 16.9% and 16.7% and 21.7%
[metaxalone] (CYP2E1; 7.5 μM metaxalone, 5 pmol cyp): 6.41 µM and 6.42 µM and 6.04 µM
percent turnover (CYP2E1; [14]): 17.2%
% Turnover Mean (CYP2E1; 7.5 μM metaxalone, 20 pmol cyp): 17.2%
[metaxalone] Mean (CYP2E1; 7.5 μM metaxalone, 20 pmol cyp): 6.39 µM
% Turnover % (CYP2E1; 7.5 μM metaxalone, 20 pmol cyp): 18.0% and 19.0% and 14.5%
[metaxalone] (CYP2E1; 7.5 μM metaxalone, 20 pmol cyp): 6.33 µM and 6.25 µM and 6.60 µM
Substrate (CYP2E1; CYP isozyme 2E1, summary of studies): +
observed increase of extent of absorption (AUC0-inf) with food relative to fasted treatment [1]: 115.4%
observed increase of extent of absorption (AUC0-t) with food relative to fasted treatment [1]: 123.5%
observed increase of peak plasma concentration (Cmax) with food relative to fasted treatment [1]: 177.5%
